Source: US5891742A, “Affinity selection of ligands by mass spectroscopy” (Chiron Corporation, priority 1995, dated 1999)

Legend:
uPAR = uPAR (Homo sapiens, UniProt Q03405); details: individual N-substituted glycine peptoids
Method: Human urokinase plasminogen activator receptor (UPAR) was expressed in a soluble, truncated form as described by Rosenberg et al., W094/28145, incorporated herein by reference. […] The ligand uPA1-48 was prepared as described in Rosenberg, supra.

sUPAR = sUPAR (Homo sapiens, UniProt Q03405); details: mixture 1 μM per compound, sUPAR 1 μM
Sequence of sUPAR (Q03405 23-305): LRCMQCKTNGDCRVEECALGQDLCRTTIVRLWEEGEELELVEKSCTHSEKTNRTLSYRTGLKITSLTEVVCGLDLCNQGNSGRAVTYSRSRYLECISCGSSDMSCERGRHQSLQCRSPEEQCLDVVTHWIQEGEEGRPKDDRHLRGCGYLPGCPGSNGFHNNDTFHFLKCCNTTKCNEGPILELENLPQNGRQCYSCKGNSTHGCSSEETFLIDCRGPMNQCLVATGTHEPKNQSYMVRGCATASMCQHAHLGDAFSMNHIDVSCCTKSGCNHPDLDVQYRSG
Method: The mixture (1 μM per compound) was contacted with sUPAR (1 μM) in the presence and absence of uPA1-48(2 μM), incubated for 30 minutes, and applied to a SEC HPLC column (Pharmacia HSIO/IO). The compound-target complex eluting in the excluded volume of the column was collected and analyzed on an ES MS (PE-Sciex).

Sequence of uPAR (Q03405 23-305): as above

Substance | activity (affinity for uPAR) (uPAR) | selection as compound-target complex, detected by ES MS (sUPAR; absence of uPA1-48, 30 minutes, SEC HPLC excluded volume) | specificity of selection, by competition with ligand uPA1-48 (sUPAR; presence of uPA1-48 (2 μM))
1,4-benzodioxane | insignificant activity |  | 
diphenyl |  | selected | specificity was confirmed by competition
